# In patent publication US20180238860A1, “INDIVIDUAL METHOD PREDICTIVE OF THE DNA-BREAKING GENOTOXIC EFFECTS OF CHEMICAL OR BIOCHEMICAL AGENTS” (priority 2015, published 2018):
# Legend:
# Format in all cases: cell-based, human
# Ha (astrocyte cells) [1] = test: pH2AX foci 24 h after contacting, Ha astrocyte cells; conditions: for pH2AX: Ha, 24 hours after contacting
# Procedure: (§1) In one embodiment, on receipt, the tissue sample (typically the biopsy) is established in the form of an amplifiable cell line without a viral or chemical transformation agent according to an ancillary procedure well known to culture laboratories, as underlined by the publication of Elkind et al. “The radiobiology of cultured mammalian cell”, Gordon and Breach (1967). Once the number of cells is sufficient (typically after 1 to 3 weeks), the first experiments are carried out using the process according to the invention. A cell sample is prepared: The cells are inoculated on glass coverslips in Petri dishes. A portion of these coverslips are contaminated with metals or pesticides or any other DNA-breaking chemical or biochemical agent at different concentrations. A further portion is not contaminated; it represents the spontaneous state. During contamination, the cells remain in the culture incubator at 37° C.
# (§2) For the contaminated cells, characteristics are acquired corresponding to the state after an incubation time with the DNA-breaking chemical or biochemical agent. Said characteristics are represented by foci corresponding to the marker pH2AX. The cells on glass coverslips are then fixed, lysed and hybridized. The following procedure, known per se (Bodgi et al, “A single formula to describe radiation-induced protein relocalization: towards a mathematical definition of individual radiosensitivity”, J Theor Biol. 21 p 333:135-45.2013):
# (§3) the cells are fixed in 3% paraformaldehyde and 2% sucrose for 15 minutes at ambient temperature and permeabilized in 20 mM HEPES buffer solution (4-(2-hydroxyethyl)-1-piperazine ethane sulfonic acid) at pH 7.4, 50 mM NaCl, 3 mM MgCl2, 300 mM sucrose, 0.5% Triton X-100 (a non-ionic surfactant having the formula t-Oct-C6H4-(OCH2CH2)×OH where x=9-10, CAS No. 9002-93-1, supplied for example by Sigma Aldrich) for 3 minutes. The glass coverslips are then washed in phosphate buffer saline (known as the acronym PBS) before immunological staining. The incubation took place for 40 min at 37° C. in PBS supplemented with 2% bovine serum albumin (known as the acronym BSA or fraction V, supplied for example by Sigma Aldrich) and was followed by a wash with PBS. Anti-pH2AX primary antibodies are used at a concentration of 1:800. The incubations with anti-mouse FITC or anti-rabbit TRITC secondary antibodies (1:100, supplied by Sigma Aldrich) were performed at 37° C. in 2% BSA for 20 minutes. Glass coverslips were treated with Vectashield™ containing DAPI (4,6-Diamidino-2-phenylindole) to label the nucleus. Staining with DAPI also makes it possible, indirectly, to determine the number of cells in phase G1 (nuclei with homogenous DAPI staining), in phase S (nuclei with numerous pH2AX foci), in phase G2 (nuclei with heterogeneous DAPI staining) and metaphases (visible chromosomes).
# (§4) The results are acquired using these coverslips on an immunofluorescence microscope (Olympus model for example). The reading may be direct (typically by counting the foci on at least 50 cells in G0/G1 for each point) or using dedicated image analysis software, or on an automated microscope; preferably the software or automated microscope methods are calibrated with manual determinations.
# (§5) The tables hereinafter summarize the results of numerous experiments which were carried out as described in the “Detailed description” section above.
# (§6) In tables 3 and 4, “pH2AX” corresponds to the mean number of nuclear foci obtained with the marker pH2AX, 24 hours after contacting the cell sample with the chemical agent at the concentration C (NpH2AX(24 h, C)), and where “Micronuclei” corresponds to the mean number of micronuclei observed per 100 cells 24 hours after contacting the cell sample with the chemical agent at the concentration C(NMN(24 h, C)). […]
# Ha (astrocyte cells) [2] = test: Micronuclei per 100 cells 24 h after contacting, Ha astrocyte cells
# Procedure: as §1, §3
# (§7) Counterstaining with DAPI (a DNA marker known to those skilled in the art) makes it possible to locate the nucleus to situate the cytoplasmic or nuclear location to quantify the micronuclei, which are complementary cell markers to the data on the foci.
# as §5
# (§8) In tables 3 and 4, “pH2AX” corresponds to the mean number of nuclear foci obtained with the marker pH2AX, 24 hours after contacting the cell sample with the chemical agent at the concentration C (NpH2AX(24 h, C)), and where “Micronuclei” corresponds to the mean number of micronuclei observed per 100 cells 24 hours after contacting the cell sample with the chemical agent at the concentration C(NMN(24 h, C)).
# (§9) Table 4 presents a detection of number of pH2AX foci and number of micronuclei 24 hours after contacting control nervous system cell lines Ha (astrocyte cells), Hah (hippocampus astrocyte cells) and Hasp (spinal cord astrocyte cells) with a metallic compound (AlCl3, Cu, CuCl2, CuSO4, Pb(NO3)2, CdCl2, Cd-acetate or Cd-acetate-citrate) according to the concentration of said metallic compound used.
# [3] = system: Hah (hippocampus astrocyte cells); test: pH2AX foci 24 h after contacting, Hah hippocampus astrocyte cells
# Procedure: as §1, §2, §3, §4, §5, §6
# [4] = system: Hah (hippocampus astrocyte cells); test: Micronuclei per 100 cells 24 h after contacting, Hah
# Procedure: as §1, §3, §7, §5, §8, §9
# [5] = system: Hasp (spinal cord astrocyte cells); test: pH2AX foci 24 h after contacting, Hasp spinal cord astrocyte cells
# Procedure: as §1, §2, §3, §4, §5, §6
# [6] = system: Hasp (spinal cord astrocyte cells); test: Micronuclei per 100 cells 24 h after contacting, Hasp
# Procedure: as §1, §3, §7, §5, §8, §9
# HMEC cells [7] = test: pH2AX foci 24 h after contacting, Table 4 lower part (HMEC endothelial cells); conditions: for pH2AX: line cell blank (below Hasp), 24 hours after contacting
# Procedure: as §1, §2, §3, §4, §5, §8
# HMEC cells [8] = test: Micronuclei per 100 cells 24 h after contacting, Table 4 lower part (HMEC); conditions: line cell blank (below Hasp)
# Procedure: as §1, §3, §7, §5, §8
# 1BR3 (control cells) = test: pH2AX foci immunofluorescence 24 h after contacting, 1BR3 control fibroblasts; conditions: 1BR3, 24 hours after contacting (Table 3)
# Procedure: as §1, §2, §3, §4
# Commercial 1BR3 and 149 BR control fibroblasts were amplified according to the recommendations of the supplier (SIGMA-ALDRICH) until the number of cells sought was obtained. After obtaining a sufficient number of cells (generally after one to 3 weeks), the first experiments were conducted using the process according to the invention. The cells were inoculated on glass coverslips in Petri dishes.
# The acquisition of the results was carried out using these coverslips on an immunofluorescence microscope (Olympus model). The reading was performed directly by counting the foci obtained with the marker pH2AX on at least 50 cells in G0/G1 for each point or using dedicated image analysis software (imageJ). […]
# 1BR3 cells = test: Micronuclei per 100 cells 24 h after contacting, 1BR3
# Procedure: as §1, §3, §7, §5, §8
smiles,measurement,setting,value
[Cl][Al]([Cl])[Cl] [AlCl3],pH2AX,Ha (astrocyte cells) [1]; 3 μM,0.34 foci
same,pH2AX,Ha (astrocyte cells) [1]; 10 μM,0.88 foci
same,pH2AX,Ha (astrocyte cells) [1]; 30 μM,1.37 foci
same,pH2AX,Ha (astrocyte cells) [1]; 100 μM,2.18 foci
same,pH2AX,Ha (astrocyte cells) [1]; 300 μM,2.96 foci
same,pH2AX,Ha (astrocyte cells) [1]; 1000 μM,6.04 foci
same,H2AX foci,Ha (astrocyte cells) [1]; astrocytes (HA cells) contaminated with 100 μM,2 foci
same,Micronuclei,Ha (astrocyte cells) [2]; 3 μM,10 per 100 cells
same,Micronuclei,Ha (astrocyte cells) [2]; 10 μM,15 per 100 cells
same,Micronuclei,Ha (astrocyte cells) [2]; 30 μM,16.7 per 100 cells
same,Micronuclei,Ha (astrocyte cells) [2]; 100 μM,46.7 per 100 cells
same,Micronuclei,Ha (astrocyte cells) [2]; 300 μM,56.7 per 100 cells
same,Micronuclei,Ha (astrocyte cells) [2]; 1000 μM,70 per 100 cells
same,pH2AX,[3]; 3 μM,0.07 foci
same,pH2AX,[3]; 10 μM,0.68 foci
same,pH2AX,[3]; 30 μM,0.83 foci
same,pH2AX,[3]; 100 μM,1.22 foci
same,pH2AX,[3]; 300 μM,1.77 foci
same,pH2AX,[3]; 1000 μM,2.28 foci
same,Micronuclei,[4]; 3 μM,2 per 100 cells
same,Micronuclei,[4]; 10 μM,2 per 100 cells
same,Micronuclei,[4]; 30 μM,4 per 100 cells
same,Micronuclei,[4]; 100 μM,6 per 100 cells
same,Micronuclei,[4]; 300 μM,20 per 100 cells
same,Micronuclei,[4]; 1000 μM,30 per 100 cells
same,pH2AX,[5]; 3 μM,0.84 foci
same,pH2AX,[5]; 10 μM,0.46 foci
same,pH2AX,[5]; 30 μM,0.74 foci
same,pH2AX,[5]; 100 μM,2.15 foci
same,pH2AX,[5]; 300 μM,1.7 foci
same,pH2AX,[5]; 1000 μM,1.62 foci
same,Micronuclei,[6]; 3 μM,2 per 100 cells
same,Micronuclei,[6]; 10 μM,4 per 100 cells
same,Micronuclei,[6]; 30 μM,4 per 100 cells
same,Micronuclei,[6]; 100 μM,7.3 per 100 cells
same,Micronuclei,[6]; 300 μM,8.7 per 100 cells
same,Micronuclei,[6]; 1000 μM,13 per 100 cells
same,H2AX foci,"HMEC cells [7]; endothelial cells (HMEC cells), 100 μM",3.7 foci
same,pH2AX,HMEC cells [7]; 3 μM,3.2 foci
same,pH2AX,HMEC cells [7]; 10 μM,3.2 foci
same,pH2AX,HMEC cells [7]; 30 μM,5.7 foci
same,pH2AX,HMEC cells [7]; 100 μM,3.7 foci
same,pH2AX,HMEC cells [7]; 300 μM,4.5 foci
same,pH2AX,HMEC cells [7]; 1000 μM,9.9 foci
same,Micronuclei,HMEC cells [8]; 3 μM,1.75 per 100 cells
same,Micronuclei,HMEC cells [8]; 10 μM,3.75 per 100 cells
same,Micronuclei,HMEC cells [8]; 30 μM,5 per 100 cells
same,Micronuclei,HMEC cells [8]; 100 μM,4.33 per 100 cells
same,Micronuclei,HMEC cells [8]; 300 μM,7.33 per 100 cells
same,Micronuclei,HMEC cells [8]; 1000 μM,11.5 per 100 cells
CCNc1nc(Cl)nc(NC(C)C)n1 [Atrazine],pH2AX,1BR3 (control cells); 0.01 μM,1 foci
same,pH2AX,1BR3 (control cells); 0.1 μM,1.3 foci
same,pH2AX,1BR3 (control cells); 0.3 μM,1.8 foci
same,pH2AX,1BR3 (control cells); 10 μM,3.1 foci
same,pH2AX,1BR3 (control cells); 30 μM,3.5 foci
same,Micronuclei,1BR3 cells; 0.01 μM,5 per 100 cells
same,Micronuclei,1BR3 cells; 0.1 μM,6 per 100 cells
same,Micronuclei,1BR3 cells; 1 μM,13.5 per 100 cells
same,Micronuclei,1BR3 cells; 10 μM,15 per 100 cells
same,Micronuclei,1BR3 cells; 20 μM,40 per 100 cells
[Cu] [Cu],pH2AX,Ha (astrocyte cells) [1]; 10 μM,0.3 foci
same,pH2AX,Ha (astrocyte cells) [1]; 30 μM,0.62 foci
same,pH2AX,Ha (astrocyte cells) [1]; 100 μM,2.55 foci
same,pH2AX,Ha (astrocyte cells) [1]; 300 μM,0 foci
same,pH2AX,Ha (astrocyte cells) [1]; 1000 μM,0 foci
same,Micronuclei,Ha (astrocyte cells) [2]; 10 μM,4 per 100 cells
same,Micronuclei,Ha (astrocyte cells) [2]; 30 μM,5 per 100 cells
same,Micronuclei,Ha (astrocyte cells) [2]; 100 μM,13 per 100 cells
same,Micronuclei,Ha (astrocyte cells) [2]; 300 μM,20 per 100 cells
same,Micronuclei,Ha (astrocyte cells) [2]; 1000 μM,50 per 100 cells
same,pH2AX,[3]; 10 μM,1.01 foci
same,pH2AX,[3]; 30 μM,1.87 foci
same,pH2AX,[3]; 100 μM,2.62 foci
same,pH2AX,[3]; 300 μM,5.45 foci
same,pH2AX,[3]; 1000 μM,6.61 foci
same,Micronuclei,[4]; 10 μM,6 per 100 cells
same,Micronuclei,[4]; 30 μM,10.7 per 100 cells
same,Micronuclei,[4]; 100 μM,20.7 per 100 cells
same,Micronuclei,[4]; 300 μM,46.7 per 100 cells
same,Micronuclei,[4]; 1000 μM,73.3 per 100 cells
same,pH2AX,[5]; 10 μM,0.29 foci
same,pH2AX,[5]; 30 μM,0.64 foci
same,pH2AX,[5]; 100 μM,1.13 foci
same,pH2AX,[5]; 300 μM,1.78 foci
same,pH2AX,[5]; 1000 μM,2.36 foci
same,Micronuclei,[6]; 10 μM,4 per 100 cells
same,Micronuclei,[6]; 30 μM,7 per 100 cells
same,Micronuclei,[6]; 100 μM,9 per 100 cells
same,Micronuclei,[6]; 300 μM,10 per 100 cells
same,Micronuclei,[6]; 1000 μM,16 per 100 cells
Oc1c(Cl)c(Cl)c(Cl)c(Cl)c1Cl [PCP],pH2AX,1BR3 (control cells); 0.3 μM,1.2 foci
same,pH2AX,1BR3 (control cells); 10 μM,1.5 foci
same,pH2AX,1BR3 (control cells); 30 μM,1.9 foci
same,pH2AX,1BR3 (control cells); 100 μM,4.3 foci
same,Micronuclei,1BR3 cells; 0.3 μM,2 per 100 cells
same,Micronuclei,1BR3 cells; 3 μM,4 per 100 cells
same,Micronuclei,1BR3 cells; 10 μM,10 per 100 cells
same,Micronuclei,1BR3 cells; 50 μM,10 per 100 cells
same,Micronuclei,1BR3 cells; 100 μM,20 per 100 cells
